Test results published in ChEMBL document CHEMBL1201862, “PubChem BioAssay data set” (2004).
Calls of active or inactive are those of the source.

Key:
[1] = target: Nonstructural protein 1 (Influenza A virus, UniProt Q194T2); type: functional, Influenza A virus (A/California/07/2009(H1N1))
[2] = cells; type: functional, cell-based
[3] = cells; type: functional, cell-based; remark: listed apart in the source
[4] = target: T1, Carboxy-terminal domain RNA polymerase II polypeptide A small phosphatase 1 (Homo sapiens, UniProt Q9GZU7); experiment: inhibitors of CTDSP1, concentration-response testing, biochemical assay, absorbance-based, actives from ultra-high-throughput screening (AID 540297); type: functional
T1 sequence (Q9GZU7 whole entry): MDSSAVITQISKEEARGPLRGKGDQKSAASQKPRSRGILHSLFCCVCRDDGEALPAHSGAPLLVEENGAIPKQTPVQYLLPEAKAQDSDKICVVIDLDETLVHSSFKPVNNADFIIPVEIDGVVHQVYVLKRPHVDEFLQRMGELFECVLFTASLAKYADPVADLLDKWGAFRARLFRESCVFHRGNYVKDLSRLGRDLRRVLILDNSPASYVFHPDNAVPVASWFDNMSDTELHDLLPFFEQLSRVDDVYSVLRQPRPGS

[5] = inhibitors of firefly luciferase expression or activity, dose response, H4 neuroglioma cells, luminescence (AID 1990); type: functional, cell-based
[6] = inhibitors of clade B AD8 Env fusion, dose response, cell-based, cherry-pick (AID 652062); type: functional;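 also: luciferase signal from cell-cell fusion driven by HIV-1 clade B AD8 Env; potency is for inhibitors of fusion seen as a drop in luminescence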
[7] = Luminescence Cell-Based Dose Response HTS to Identify Inhibitors of 5'UTR Stem-Loop Driven Prion Protein mRNA Translation in H4 Neuroglioblastoma Cells. [Related pubchem assays: 1827 (Project Summary), 1813 (Primary HTS)]; type: functional
[8] = inhibitors of HIV Env-driven cell fusion, dose response, cherry-pick (AID 652057); type: functional, cell-based
[9] = ZM109 Env clade C HIV-1 fusion inhibitors, dose response, HeLa effector, CEM target cells, luciferase, cherry-pick (AID 652058); type: functional, cell-based
[10] = off-target signal loss in HeLa-CEM21 co-culture – HeLa F-luc CTL cells, cherry-picked, counter-screen for HIV-1 Env fusion inhibitor project, dose response (AID 652040); type: functional, cell-based;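 also: potency for signal decrease marking cytotoxic or nonspecific inhibition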
[11] = inhibitors of SNCA 5'UTR-driven reporter translation, confirmation, H4 neuroglioma cells, luminescence (AID 1988); type: functional, cell-based
[12] = HEp-2 cell cytotoxicity, dose response, cytotoxicity control for RSV inhibitor project, HTS (AID 2410); type: functional; conditions: human respiratory syncytial virus
[13] = target: Large T antigen (Simian virus 40, UniProt P03070); type: functional, Betapolyomavirus macacae;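 also: Confirmatory-stage PubChem screen for compounds that inhibit SV40 T antigen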
Large T antigen, sequence (P03070 whole entry): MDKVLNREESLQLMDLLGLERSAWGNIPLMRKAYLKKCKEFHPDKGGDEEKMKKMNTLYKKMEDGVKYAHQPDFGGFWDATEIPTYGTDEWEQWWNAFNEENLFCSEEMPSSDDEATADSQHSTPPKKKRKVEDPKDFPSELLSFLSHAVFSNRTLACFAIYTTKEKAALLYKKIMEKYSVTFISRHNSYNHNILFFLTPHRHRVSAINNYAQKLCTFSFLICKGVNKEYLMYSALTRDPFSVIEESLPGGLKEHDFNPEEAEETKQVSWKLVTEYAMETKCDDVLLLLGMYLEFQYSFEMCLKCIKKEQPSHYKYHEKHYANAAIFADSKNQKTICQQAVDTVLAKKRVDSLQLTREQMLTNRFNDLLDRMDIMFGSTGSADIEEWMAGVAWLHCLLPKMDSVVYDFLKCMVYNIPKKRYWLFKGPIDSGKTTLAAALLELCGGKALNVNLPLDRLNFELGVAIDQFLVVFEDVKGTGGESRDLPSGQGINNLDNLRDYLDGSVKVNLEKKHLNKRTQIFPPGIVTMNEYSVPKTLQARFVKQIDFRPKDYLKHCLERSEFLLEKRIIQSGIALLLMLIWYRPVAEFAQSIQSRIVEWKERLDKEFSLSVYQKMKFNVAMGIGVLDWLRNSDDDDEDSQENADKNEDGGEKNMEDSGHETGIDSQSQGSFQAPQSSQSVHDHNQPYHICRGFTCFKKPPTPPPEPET

[14] = target: T2, Rac GTPase-activating protein 1 (Homo sapiens, UniProt Q9H0H5); experiment: MgcRacGAP GTPase-activating activity inhibitors, confirmation, biochemical, ADP Hunter fluorescence, primary and confirmatory (AID 624330); type: functional
T2 sequence (Q9H0H5 whole entry): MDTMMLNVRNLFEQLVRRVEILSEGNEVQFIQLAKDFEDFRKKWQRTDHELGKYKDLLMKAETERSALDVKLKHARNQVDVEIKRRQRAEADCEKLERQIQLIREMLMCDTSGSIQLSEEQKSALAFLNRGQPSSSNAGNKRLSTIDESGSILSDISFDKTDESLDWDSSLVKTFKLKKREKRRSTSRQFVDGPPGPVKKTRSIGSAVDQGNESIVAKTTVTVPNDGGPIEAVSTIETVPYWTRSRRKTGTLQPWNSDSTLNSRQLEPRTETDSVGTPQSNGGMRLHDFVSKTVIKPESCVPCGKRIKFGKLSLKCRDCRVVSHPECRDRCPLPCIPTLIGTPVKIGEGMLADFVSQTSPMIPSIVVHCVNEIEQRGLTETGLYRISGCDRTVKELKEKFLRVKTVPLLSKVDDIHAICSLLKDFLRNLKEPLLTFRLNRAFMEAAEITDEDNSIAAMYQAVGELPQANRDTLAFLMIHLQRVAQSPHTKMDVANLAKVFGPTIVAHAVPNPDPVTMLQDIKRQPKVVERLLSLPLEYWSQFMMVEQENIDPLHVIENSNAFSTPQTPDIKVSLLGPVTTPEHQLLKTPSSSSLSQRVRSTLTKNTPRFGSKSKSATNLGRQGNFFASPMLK

[15] = target: T3, Protein skinhead-1 (Caenorhabditis elegans, UniProt P34707); type: functional
T3 sequence (P34707 whole entry): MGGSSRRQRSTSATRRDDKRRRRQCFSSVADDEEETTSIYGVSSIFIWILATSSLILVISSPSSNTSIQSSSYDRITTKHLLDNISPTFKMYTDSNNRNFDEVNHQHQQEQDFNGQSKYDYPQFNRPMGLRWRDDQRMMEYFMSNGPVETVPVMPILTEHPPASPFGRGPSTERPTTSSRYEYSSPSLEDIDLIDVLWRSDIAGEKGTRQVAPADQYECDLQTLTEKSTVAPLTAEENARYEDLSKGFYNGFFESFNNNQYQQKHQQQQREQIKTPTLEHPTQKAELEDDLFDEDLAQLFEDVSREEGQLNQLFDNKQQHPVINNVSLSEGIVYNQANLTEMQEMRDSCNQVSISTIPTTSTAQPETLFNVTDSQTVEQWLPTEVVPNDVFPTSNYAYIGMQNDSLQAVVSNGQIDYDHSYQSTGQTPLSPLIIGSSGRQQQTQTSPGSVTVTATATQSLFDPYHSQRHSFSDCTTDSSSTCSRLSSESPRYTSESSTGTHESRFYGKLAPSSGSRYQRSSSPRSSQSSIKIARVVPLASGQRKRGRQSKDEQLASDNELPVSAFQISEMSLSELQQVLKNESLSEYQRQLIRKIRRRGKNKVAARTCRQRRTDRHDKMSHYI

[16] = system: Streptococcus; experiment: Group A Streptococcus viability loss, dose response, counter-screen for streptokinase expression inhibitor project, luminescence, BacTiterGlo (AID 1915); type: functional, organism-based;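 also: potency for reduction of bacterial viability or growth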
[17] = target: T4, Streptokinase A (Streptococcus pyogenes serotype M1, UniProt P10520); experiment: S. pyogenes streptokinase expression inhibitors, potency, dose response, plasminogen activation absorbance, OD405 (AID 1914); type: functional, Streptococcus pyogenes M1 GAS;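 also: secreted streptokinase activity via plasminogen activation per viability signal from cell pellet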
T4 sequence (P10520 whole entry): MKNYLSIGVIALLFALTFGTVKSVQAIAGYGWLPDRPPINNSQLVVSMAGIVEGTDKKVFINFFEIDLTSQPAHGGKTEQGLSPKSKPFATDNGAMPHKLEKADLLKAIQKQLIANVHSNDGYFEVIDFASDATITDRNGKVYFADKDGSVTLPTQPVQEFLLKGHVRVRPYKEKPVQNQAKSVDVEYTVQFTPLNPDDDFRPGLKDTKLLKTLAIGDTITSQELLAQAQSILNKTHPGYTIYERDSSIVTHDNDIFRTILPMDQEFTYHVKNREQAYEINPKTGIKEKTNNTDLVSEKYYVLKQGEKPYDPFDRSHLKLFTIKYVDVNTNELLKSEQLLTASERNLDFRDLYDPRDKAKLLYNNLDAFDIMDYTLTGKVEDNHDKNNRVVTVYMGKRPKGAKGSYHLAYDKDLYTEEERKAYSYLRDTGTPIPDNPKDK

[18] = target: T5, RNA-binding protein pos-1 (Caenorhabditis elegans, UniProt G5EF15); experiment: inhibitors of POS-1/mex-3 RNA binding, dose response, biochemical, fluorescence polarization (AID 1964);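 also: purified POS-1 fused to maltose binding protein made in E. coli; potency of compounds blocking POS-1 binding to fluorescent RNA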
T5 sequence (G5EF15 whole entry): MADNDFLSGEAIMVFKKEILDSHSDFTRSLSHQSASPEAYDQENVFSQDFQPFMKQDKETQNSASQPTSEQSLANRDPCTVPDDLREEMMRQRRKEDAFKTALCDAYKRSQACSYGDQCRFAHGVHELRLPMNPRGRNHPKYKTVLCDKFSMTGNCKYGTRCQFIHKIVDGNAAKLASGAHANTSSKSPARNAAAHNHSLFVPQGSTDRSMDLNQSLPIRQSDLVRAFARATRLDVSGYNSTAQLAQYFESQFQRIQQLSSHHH

[19] = target: T6, Zinc finger protein mex-5 (Caenorhabditis elegans, UniProt Q9XUB2); experiment: MEX-5/TCR-2 RNA interaction inhibitors, dose response, biochemical, C. elegans, fluorescence polarization (AID 1960)
T6 sequence (Q9XUB2 whole entry): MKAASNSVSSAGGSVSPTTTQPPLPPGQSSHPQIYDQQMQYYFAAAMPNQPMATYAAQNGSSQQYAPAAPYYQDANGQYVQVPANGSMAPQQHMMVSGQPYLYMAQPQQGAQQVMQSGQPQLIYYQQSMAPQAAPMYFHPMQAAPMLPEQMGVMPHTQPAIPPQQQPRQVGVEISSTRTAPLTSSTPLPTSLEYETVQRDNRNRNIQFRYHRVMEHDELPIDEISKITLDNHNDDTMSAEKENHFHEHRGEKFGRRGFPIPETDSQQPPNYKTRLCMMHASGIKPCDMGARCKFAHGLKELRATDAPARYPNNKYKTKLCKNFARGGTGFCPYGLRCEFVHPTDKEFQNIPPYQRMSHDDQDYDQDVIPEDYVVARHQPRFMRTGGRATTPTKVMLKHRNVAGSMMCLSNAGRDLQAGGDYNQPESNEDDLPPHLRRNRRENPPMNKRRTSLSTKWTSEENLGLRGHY

[20] = target: Paired box protein Pax-8 (Homo sapiens, UniProt Q06710); experiment: inhibitors of PAX8-driven TPO luciferase reporter, dose response, RMG-I cells, cherry-pick (AID 687027); type: functional, cell-based;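 also: luciferase reporter driven by Pax8 target thyroperoxidase promoter measured by SteadyGlo luminescence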
Paired box protein Pax-8, sequence (Q06710 whole entry): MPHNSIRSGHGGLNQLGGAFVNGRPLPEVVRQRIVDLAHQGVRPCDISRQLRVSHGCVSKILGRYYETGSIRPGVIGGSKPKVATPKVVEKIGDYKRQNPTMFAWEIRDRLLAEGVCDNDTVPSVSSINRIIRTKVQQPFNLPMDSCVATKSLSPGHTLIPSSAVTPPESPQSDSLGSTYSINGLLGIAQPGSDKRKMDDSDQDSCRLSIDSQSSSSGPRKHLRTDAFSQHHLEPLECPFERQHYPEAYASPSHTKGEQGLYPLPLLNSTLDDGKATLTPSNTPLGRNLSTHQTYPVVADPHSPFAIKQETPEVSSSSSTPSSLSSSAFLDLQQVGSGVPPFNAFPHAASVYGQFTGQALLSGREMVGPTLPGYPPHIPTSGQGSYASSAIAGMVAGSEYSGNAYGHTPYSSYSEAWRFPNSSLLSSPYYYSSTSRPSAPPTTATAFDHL

Nonstructural protein 1, sequence (Q194T2 whole entry): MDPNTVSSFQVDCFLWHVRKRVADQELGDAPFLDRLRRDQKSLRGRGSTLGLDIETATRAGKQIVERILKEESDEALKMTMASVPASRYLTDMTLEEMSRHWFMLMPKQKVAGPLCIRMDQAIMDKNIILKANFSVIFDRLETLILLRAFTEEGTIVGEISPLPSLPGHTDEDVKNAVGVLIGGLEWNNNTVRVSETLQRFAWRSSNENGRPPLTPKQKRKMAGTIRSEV

Compound: Oc1cccc2c(-c3nn[nH]n3)ccnc12
- IC50 [1]: 7.24 µM (active)

Compound: Cc1cc2ccccn2c1C(=O)c1cc([N+](=O)[O-])cc([N+](=O)[O-])c1
- IC50 [1]: 40.7 µM (active)

Compound: Cc1ccc(NC(=O)N2CCC(NC(=O)c3cccc(C)c3)CC2)cc1
- EC50 [2]: > 350 µM (not active)
- EC50 [3]: > 350 µM (not active)
- IC50 [4]: 10.5 µM (active)

Compound: O=C(Nc1cccc([N+](=O)[O-])c1)c1cnccn1
- IC50 [4]: 5.88 µM (active)

Compound: O=C(NCc1ccco1)c1ccc(Cn2c(=O)c3ccccc3n(Cc3cccc(Cl)c3)c2=O)cc1
- EC50 [5]: 11.8 µM (active)
- AC50 [6]: 1.34 µM (active)
- EC50 [7]: > 120 µM (not active)
- AC50 [8]: 1.83 µM (active)
- AC50 [9]: 2.76 µM (active)
- AC50 [10]: 1.78 µM (active)
- EC50 [11]: 16.5 µM (active)

Compound: CC/N=c1\scc(C)n1/N=C/c1cc(Br)c(O)c(OC)c1
- CC50 [12]: 15.6 µM (active)
- IC50 [13]: 8.55 µM (active)
- IC50 [14]: 25.2 µM (active)

Compound: Cc1ccc(OCCCCNC(C)c2ccccc2)c(C)c1 (stereo not drawn)
- AC50 [6]: 5.36 µM (active)
- AC50 [8]: 3.69 µM (active)
- AC50 [9]: 5.29 µM (active)
- AC50 [10]: 2.94 µM (active)

Compound: N#Cc1ccsc1NC(=O)COC(=O)CCS(=O)(=O)c1ccccc1
- IC50 [4]: 8.32 µM (active)

Compound: N#CC1(NC(=O)COc2ccccc2[N+](=O)[O-])CCCCC1
- IC50 [4]: 18.7 µM (active)

Compound: O=C(COC(=O)c1cccc(S(=O)(=O)N2CCOCC2)c1)Nc1ncc(C(F)(F)F)cc1Cl
- IC50 [15]: > 100 µM (inactive)
- EC50 [2]: > 350 µM (not active)
- EC50 [3]: > 350 µM (not active)

Compound: COc1ccc(CC(=O)Nc2nnc(SCc3ccccc3)s2)cc1S(=O)(=O)N1CCOCC1
- IC50 [15]: > 100 µM (inactive)

Compound: C=CCOCCN1C(=O)C2C3C=CC(C2C1=O)C1C2C(=O)N(CCOCC=C)C(=O)C2C31 (stereo not drawn)
- IC50 [4]: 19.9 µM (active)

Compound: CCCCNC(=O)COC(=O)c1cc(S(=O)(=O)N2CCCCCC2)ccc1OC
- IC50 [15]: > 100 µM (inactive)

Compound: COc1cccc(/C=N/NC(=O)C(=O)NCc2cccnc2)c1O
- IC50 [1]: 8.2 µM (active)

Compound: CN(C)c1nc(SCc2ccccc2Cl)nc2c1CCCC2
- IC50 [15]: > 100 µM (inactive)
- EC50 [16]: > 150 µM (not active)
- EC50 [17]: 14 µM (active)

Compound: Cc1ccc(/C=C2\C(=O)NC(=S)N(c3cccc(F)c3)C2=O)o1
- EC50 [18]: 63.5 µM (active)
- IC50 [13]: 36.7 µM (active)
- EC50 [19]: 44.6 µM (active)

Compound: COc1cc2cnc(-c3ccccc3)c(-c3cc(OC)c(OC)c(OC)c3)c2cc1OC
- IC50 [4]: 67.2 µM (active)

Compound: CCOC(=O)C1=CN(Cc2cccc(-c3cccnc3)c2)S(=O)(=O)N(C)C1C (stereo not drawn)
- AC50 [20]: 59.2 µM (active)

Compound: COc1ccc(S(=O)(=O)NCCSC(C)(C)C)c(Cl)c1Cl
- IC50 [4]: 8.61 µM (active)

Compound: CSc1ccc(-c2nnn(Cc3ccc(Br)cc3)n2)cc1
- IC50 [15]: > 100 µM (inactive)

Compound: Cc1ccc(C2C=NN(c3ccccc3)C2=O)cc1 (stereo not drawn)
- IC50 [13]: 31 µM (active)
- IC50 [14]: 115 µM (active)

Compound: C[C@@H]1CCCCO[C@H](CN(C)C(=O)Nc2ccc(C(F)(F)F)cc2)[C@H](C)CN([C@@H](C)CO)C(=O)c2cc(NS(=O)(=O)c3ccc(Cl)cc3)ccc2O1
- AC50 [20]: 16.4 µM (active)

Compound: Nc1ncc(-c2ccc(-c3ccccc3)cc2F)cc1-c1ccccc1F
- IC50 [15]: > 100 µM (inactive)

Compound: C=C(C)c1cccc(C(C)(C)NC(=O)Nc2ccc(Cl)cn2)c1
- AC50 [6]: 12.8 µM (active)
- AC50 [8]: 50.7 µM (active)
- AC50 [9]: 0.604 µM (active)
- AC50 [10]: 16.5 µM (active)

Compound: OC[C@H]1O[C@@H](n2cnc3c(NCc4ccco4)ncnc32)[C@H](O)[C@@H]1O [KINETIN RIBOSIDE]
- AC50 [20]: 2.25 µM (active)
